PMC12299847, “Macroalgae-Inspired Brominated Chalcones as Cosmetic Ingredients with the Potential to Target Skin Inflammaging” (Marine Drugs, 2025)

How the values were obtained:
[1] = Resazurin cell viability assay in HaCaT keratinocytes; assay type: cell-based, human; details: human, HaCaT keratinocytes, resazurin, read-out: IC50 (cell viability, cytotoxicity)
Protocol: (§1) To evaluate the effects of chalcones 1–7 on cell viability after 24 h, a resazurin assay was performed using two cell lines: human HaCaT keratinocytes (HaCaT, CLS 300493), representing the epidermal layer, and murine RAW 264.7 macrophages (RAW 264.7, ATCC TIB-71), which model immune cells involved in dermal inflammatory responses. For the keratinocyte cell line, all seven brominated and non-brominated chalcones were tested across a concentration range from 2.5 μM to 125 μM (Figure 2).
(§2) Human keratinocytes (HaCaT, CLS 300493, Eppelheim, Germany) were cultured in DMEM supplemented with heat-inactivated FBS, and a penicillin and streptomycin antibiotic solution. The cell culture of keratinocytes was washed with 6 mL of phosphate buffer solution with 0.05% EDTA (Sigma-Aldrich, St. Louis, MO, USA) and detached using 3 mL of 0.05% trypsin + 0.02% EDTA in PBS solution when the cells reached 70–80% confluence in cell culture flasks. DMEM was also used to cultivate the mouse macrophage cell line (RAW 264.7, ATCC TIB-71, Manassas, VA, USA) together with 10% (v/v) non-inactivated FBS, 1.5 g/L sodium bicarbonate, and 100 U/mL penicillin and 100 μg/mL streptomycin stock (antibiotic solution). The macrophage culture was mechanically detached using a cell scraper, and the final amount of DMEM media with the cells was sub-cultured in a 1:10 ratio to the cellular suspension.
(§3) The resazurin reduction assay was employed to evaluate the metabolic activity of human epidermal keratinocyte (HaCaT) and murine macrophage (RAW264.7) cell lines, as outlined in a previous study. In brief, HaCaT cells (1.0 × 10^5 cells/mL) and RAW264.7 cells (5.0 × 10^4 cells/mL) were seeded in 96-well plates (200 μL/well) and incubated overnight at 37 °C to allow for cell attachment. Following this, the cells were treated with different concentrations of the test compounds and kept at 37 °C for 24 h. After 20 h, resazurin (500 μM in sterile phosphate buffer solution, pH 7.4) was added to each well to achieve a final concentration of 50 μM, followed by an additional incubation of 4 h. Absorbance was then measured at wavelengths of 570 and 620 nm using a SpectraMax Plus 384 absorbance microplate spectrophotometer (Molecular Devices, San Jose, CA, USA). Each experiment was conducted in triplicate, with a minimum of three independent assays. The results were graphically presented as the percentage of cell viability versus chemical concentration, relative to the control.
(§4) Figure 2 Cytotoxicity of chalcones 1–7 using a resazurin reduction assay in HaCaT cells by comparison with the control. Bar graphs represent the mean ± SEM of at least three independent experiments performed in triplicate. Statistical analysis: one ANOVA with Dunnett’s multiple comparisons test, where p < 0.05 was considered significant when compared to the control condition. * p < 0.05, ** p < 0.01, and *** p < 0.0005.

HaCaT keratinocytes = test: as above; assay type: cell-based, human; details: HaCaT, 24 h; for cytotoxicity / impact on keratinocyte viability: at 2.5 μM and 7.5 μM
Protocol: as §1, §2, §3, §4

RAW 264.7 macrophages = test: Resazurin cell viability assay in RAW 264.7 macrophages; assay type: cell-based, murine; details: RAW 264.7, 24 h
Protocol: as §1
To evaluate the cytotoxic effects of brominated and non-brominated chalcones 1–7 on macrophages, different concentration ranges were applied based on the response profiles previously observed for keratinocytes (Figure 3). […] For this set of chalcones, a similar tendency was observed: a lower cytotoxic characteristic of chalcone 4, which contained bromine atoms in both aromatic rings, compared to chalcones 5 (brominated in only the aromatic A ring) and 6 (non-brominated).
as §2
as §3, with “The results were graphically presented as the percentage of cell viability versus chemical concentration, relative to the control.” left out

[2] = tested on: NO production in LPS-stimulated RAW 264.7 macrophages; test: NO production (Griess assay) in LPS-stimulated macrophages; assay type: cell-based, murine; details: Mus musculus, RAW264.7, 24 h, RAW 264.7, LPS 100 ng/mL, Griess
Protocol: The anti-inflammatory potential of chalcones 1–7 was evaluated in macrophages cultured in the presence or absence (control) of LPS, as depicted in Figure 4. Under basal conditions (unstimulated, control), macrophages produce low levels of nitrites (≈12%). […] Each chalcone was tested at concentrations previously established as non-cytotoxic in macrophages, trying to ensure that observed changes in NO levels were not due to reduced cell viability.
The production of NO was evaluated by measuring nitrite accumulation in culture supernatants using the previously described Griess assay. Cells were seeded at a concentration of 5.0 × 10^4 cells/mL in a 96-well plate (200 μL/well) and allowed to stabilize overnight at 37 °C. Afterwards, the cells were treated with different concentrations of compound solutions and pre-incubated for 1 h at 37 °C. Subsequently, an LPS in PBS solution was added to each well, achieving a final concentration of 100 ng/mL, and the plate was left to incubate for 24 h. An amount of 150 μL of the cell culture supernatant was then transferred to a fresh 96-well plate, and an equal amount of Griess reagent [comprising a 1:1 mixture of 1% (w/v) sulphanilamide in 5% (v/v) phosphoric acid and 0.1% (w/v) naphthylethylenediaminedihydrochloride] was added. Following a 30 min incubation at room temperature in the dark, the absorbance was recorded at 550 nm using a Biotek Synergy HT plate reader (Biotek, CA, USA). The nitrite concentration in the supernatants was determined by comparing the absorbance of each sample to a sodium nitrite standard curve. The results, obtained from at least three independent experiments performed in duplicate, were expressed as a percentage of NO production by cells versus chemical concentration, relative to LPS condition (100%).
Figure 4 NO production by macrophages treated with LPS (100 ng/mL) or not (control) in the presence of chalcones 1–7. Results are expressed as a percentage of NO production by cells treated with LPS (100 ng/mL). Each value represents the mean ± SEM of four independent experiments in duplicate. Statistical analysis: one ANOVA with Dunnett’s multiple comparisons test, where p< 0.05 was considered significant. *** p < 0.005, relative to the control, and ^# p < 0.05, ^## p < 0.01, ^### p < 0.0005, and ^#### p < 0.0001, relative to LPS condition.

Row | IC50 [2] [µM] | Structure (SMILES) | IC50 at 24 h [1] [µM] | cytotoxicity / impact on keratinocyte viability (HaCaT keratinocytes) | concentration up to which acceptable levels of cytotoxicity were observed (RAW 264.7 macrophages) | reduction in cellular viability (HaCaT keratinocytes; at 2.5 μM) [%]
1 | 0.97 ± 0.22 | COc1cc(Br)cc(/C=C/C(=O)c2c(Br)c(Br)cc(OC)c2OC)c1OC [Chalcone 4] | 11.7 ± 1.34 | no significant impact | up to 7.5 μM | 
2 | 0.99 ± 0.54 | COc1cccc(/C=C/C(=O)c2c(Br)c(Br)cc(OC)c2OC)c1OC [Chalcone 5] | 30.4 ± 2.66 | no significant impact | up to 1 μM | 
3 | 5.95 ± 1.49 | COc1cccc(/C=C/C(=O)c2cccc(OC)c2OC)c1OC [Chalcone 6] | 14.7 ± 3.97 |  | up to 1 μM | ~25
